The text below walks through data of patent US6911470B1, “Polyoxometalate compounds as antiviral agents” (priority 1988, dated 2005).

One data set concerns HSV-2. Nature of the data set: Plaque reduction assay for herpes simplex viruses in Vero cells. Format: cell-based, herpes simplex virus type 2. Particulars: Table 2; read-out: EC-50 HSV-2. As to the method: (§1) Cell culture assays for heroes simplex viruses. Mycoplasma-free Vero cells, obtained from Flow Laboratory (McLean, Va.), were used for the plaque assays. The methodologies for the plaque reduction and cytotoxicity assays have been previously described (Schinazi et al, Antimicrob. Agents Chemother. 22, 499-507, 1982). Median-effect method. Dose-effect relationships were analyzed by the median-effect equation (Chou et al, Adv. Enz. Regul. 22, 27-55, 1984). The slope (m) and median effective and inhibitory concentration (EC50 and IC50) values were obtained by using a computer program developed by Chou and Chou (Chou et al, Elsevier-Biosoft, Elsevier Science Publishers, Cambridge, U.K., 1985).
A general note: In a plaque reduction assay, fewer plaques than in the control indicate reduced infectivity or spread.

The nature of data set [1]: Comparison of toxicity of polyoxometalate compounds in mice (mortality, haematology). Format: in vivo. Particulars: BID × 6, 60 mkd i.p.; for Mortality: dead/total. An excerpt: Comparison of Toxicity of Polyoxometalate Compounds Mice.
In vivo antiviral experiments. […] Treatment was continued daily for 6 or 10 days.

The next data set concerns HSV-1. The data set can be described thus: Plaque reduction assay for herpes simplex viruses in Vero cells. Format: cell-based, herpes simplex virus type 1. Particulars: Table 2; read-out: EC-50 HSV-1. As to the method:
as §1

Data set [2] concerns the target T1, HIV-1 reverse transcriptase (Human immunodeficiency virus type 1 group M subtype B, UniProt P04585).
T1 construct: HIV-1 RT was isolated from detergent disrupted virions; made in house; host or cells: virions pelleted from culture fluid of HIV-1-infected PHA-stimulated human PBMC; DEAE-cellulose and phosphocellulose chromatography
The data set can be described thus: Evaluation of compounds on purified retroviral RT (cell-free, virion-derived). Format: biochemical. Particulars: Table 2; read-out: EC-50 Cell-Free RT (virion-derived). As to the method: Evaluation of compounds on purified retroviral RT. HIV-1 RT was isolated from detergent disrupted virions obtained from the cell-free supernatant of infected PHA-stimulated PBMC. The enzyme was purified by passing the extract through ion-exchange chromatography columns, as described previously (Eriksson et al, Antimicrob. Agents Chemother. 31, 600-604, 1977. Briefly, 750 ml of culture fluid harvested from HIV-1-infected PBMC were ultracentrifuged to pellet the virus. The pellet was dissolved in buffer A [50 mM Tris-HCl, pH 7.9/0.25% Nonidet P-40/5 mM dithiothreitol/20% (vol/vol) glycerol] containing 1 mM EDTA, and freeze-thawed four times. After clarification by centrifugation, the enzyme was partially purified from the supernatant by passing the extract through a DEAE-cellulose column (Whatman DE-52; 2.6×15 cm) previously equilibrated with buffer B (50 mM Tris-Cl, pH 7.9, 50 mM KCl, 1 mM EDTA, 1 mM dithiothreitol, 20% glycerol). Elution was performed using a linear gradient 50-500 mM KCl in buffer B. Fractions containing enzyme activity were dialyzed against buffer B and were further purified on a phosphocellulose column (Whatman P-11) using a linear KCl (50-500 mM) gradient in buffer B. The peak fractions were pooled and dialyzed against buffer B. The enzyme was characterized as HIV-1 reverse transcriptase based on its cation, salt, pH, and template requirements according to previous descriptions (Eriksson et al, Antimicrob. Agents Chemother. 31, 600-604, 1977). The standard reaction mixture was used to evaluate the inhibitory effect of the drugs, as previously described (Eriksson et al, Antimicrob. Agents Chemother. 31, 600-604, 1977). Briefly, the reaction mixtures (final volume 100 μl) contained 100 mM Tris-HCl, pH 8.0, 50 mM KCl, 2 mM MgCl2, 5 mM DTT, 400 ug/ml bovine serum albumin, 3 μg/ml (rA)·(dT)12-18 and 1 μM of [^3H]TTP (specific activity 82.3 Ci/mmol). The reactions were started by the addition of 10 μl of partially purified RT, incubated at 37° C. for 60 min., and processed as previously described (Eriksson et al, Antimicrob. Agents Chemother. 31, 600-604, 1977).
Median-effect method. Dose-effect relationships were analyzed by the median-effect equation (Chou et al, Adv. Enz. Regul. 22, 27-55, 1984). The slope (m) and median effective and inhibitory concentration (EC50 and IC50) values were obtained by using a computer program developed by Chou and Chou (Chou et al, Elsevier-Biosoft, Elsevier Science Publishers, Cambridge, U.K., 1985).

The subject of the next data set is human PBM cells. Nature of the data set: Cytotoxicity assay on uninfected PHA stimulated human PBMC (trypan blue). Format: cell-based. The procedure:
Cells. […] PBS), and pelleted at 300×g for 10 minutes. […] Cytotoxicity assay. The drugs were evaluated for their potential toxic effects on uninfected PHA stimulated human PBMC. Flasks were seeded so that the final cell concentration was 2×10^5 cells/ml. The cells were cultured with and without drug for 6 days, at which time aliquots were counted for cell viability, as assessed by the trypan blue dye-exclusion method using a hemacytometer. The median inhibitory concentration (IC50) was calculated using the median effect method (Chou et al, Elsevier-Biosoft, Elsevier Science Publishers, Cambridge, U.K., 1985; Chou et al, Adv. Enz. Regul. 22, 27-55, 1984). Median-effect method. Dose-effect relationships were analyzed by the median-effect equation (Chou et al, Adv. Enz. Regul. 22, 27-55, 1984). The slope (m) and median effective and inhibitory concentration (EC50 and IC50) values were obtained by using a computer program developed by Chou and Chou (Chou et al, Elsevier-Biosoft, Elsevier Science Publishers, Cambridge, U.K., 1985).

The test system of the next data set is Vero cells. The data set can be described thus: Cytotoxicity assay in Vero cells. Format: cell-based. Particulars: Table 2; >100 μM = Nontoxic; read-out: IC50 Toxicity Vero Cells. An excerpt: Cell culture assays for heroes simplex viruses. Mycoplasma-free Vero cells, obtained from Flow Laboratory (McLean, Va.), were used for the plaque assays. The methodologies for the plaque reduction and cytotoxicity assays have been previously described (Schinazi et al, Antimicrob. Agents Chemother. 22, 499-507, 1982).

The subject of a further data set is HIV-1 (strain LAV-1). The data set can be described thus: microbe, parasite or virus in culture. In kind it is cell-based. The procedure:
Cells. Human peripheral blood mononuclear cells (PBMC) from healthy HIV-1 seronegative and hepatitis B virus seronegative donors were isolated by Ficoll-Hypaque discontinuous gradient centrifugation at 1,000×g for 30 minutes, washed twice in phosphate-buffered saline (pH 7.2; PBS), and pelleted at 300×g for 10 minutes. Before infection, the cells were stimulated by phytohemagglutinin (PHA) at a concentration of 6 μg/ml for three days in RPMI 1640 medium supplemented with 15% heat-inactivated fetal calf serum, 1.5 mM L-glutamine, penicillin (100 U/ml), streptomycin (100 μg/ml), and 4mM sodium bicarbonate buffer.
Viruses. HIV-1 (strain LAV-1) was obtained from Dr. P. Feorino (Centers for Disease Control, Atlanta, Ga.). The virus was propagated in human PBMC using RPMI 1640 medium, as described previously (McDougal et al, J. Immun. Meth. 76, 171-183, 1985) without PHA and supplemented with 7% v/v interleukin-2 (Advanced Biotechnologies, Silver Spring, Md.), 7 μg/ml DEAE-dextran (Pharmacia, Uppsala, Sweden), and 370 U/ml anti-human leucocyte (alpha) interferon (ICN, Lisle, Ill.). Virus obtained from cell-free culture supernatant was titrated and stored in aliquots at −80° C. until use.
Inhibition of virus replication in human PBMC. Uninfected PHA-stimulated human PBMC were uniformly distributed among 25 cm^2 flasks to give a 5 ml suspension containing about 2×10^6 cells/ml. Suitable dilutions of virus were added to infect the cultures. The mean reverse transcriptase (RT) activity of the inocula was 50,000 decompositions per min/ml corresponding to about 100 TCID50, as determined by Groopman et al. (Groopman et al, AIDS Res. Human Retro. 3, 71-85, 1987. The drugs at twice their final concentrations in 5 ml of RPMI 1640 medium, supplemented as described above, were added to the cultures. Uninfected and untreated PBMC at equivalent cell densities were grown in parallel as controls. The cultures were maintained in a humidified 5% CO2-95% air incubator at 37° C. for six days after infection, at which point all cultures were sampled for supernatant reverse transcriptase (RT) activity.
RT activity assay. Six ml supernatant from each culture was clarified from cells at 300×g for 10 minutes. Virus particles were pelleted from 5 ml samples at 40,000 rpm for 30 minutes using a Beckman 70.1 Ti rotor and suspended in 200 μl of virus disrupting buffer (50 mM Tris-Cl, pH 7.8, 800 mM NaCl, 20% glycerol, 0.5 mM phenylmethyl sulfonyl fluoride, and 0.5% Triton X-100).
The RT assay was performed in 96-well microtiter plates, as described by Spira et al. (Spira et al, J. Clin. Microbiol. 22, 97-99, 1987). The reaction mixture, which contained 50 mM Tris-Cl pH 7.8, 9 mM MgCl2, 5 mM dithiothreitol (DTT), 4.7 μg/ml (rA)n. (dT)12-18, 140 μM dATP, and 0.22 μM [^3H]TTP, specific activity 78.0 Ci/mmol, equivalent to 17,300 cpm/pmol; NEN Research Products, Boston, Mass., was added to each well. The sample (20 μl) was added to the reaction mixture which was then incubated at 37° C. for 2 hours. The reaction was terminated by the addition of 100 μl 10% trichloroacetic acid (TCA) containing 0.45 mM sodium pyrophosphate. The acid-insoluble nucleic acids which precipitated were collected on glass filters using a Skatron semi-automatic harvester. The filters were washed with 5% TCA and 70% ethanol, dried, and placed in scintillation vials. Four ml of scintillation fluid (Econofluor, NEN Research Products, Boston, Mass.) were added and the amount of radioactivity in each sample was determined using a Packard Tri-Carb liquid scintillation analyzer (model 2,000CA). The results were expressed in dpm/ml of original clarified supernatant.
Median-effect method. Dose-effect relationships were analyzed by the median-effect equation (Chou et al, Adv. Enz. Regul. 22, 27-55, 1984).

Where [3] appears, read: Table 1, read-out: EC50 Anti-HIV-1 Activity in Human PBM Cells.
Setting [4] is: Table 1, read-out: IC50 Toxicity in Human PBM Cells.

Values joined by “and” are separate entries in the source; they are usually repeats but may differ in a detail not shown here. Equal entries are not always repeated. Where two headings read alike, the source gives them in different places.

Consider “(ArgH^+)n(H^+)5-nBT, where n=1-5 [(ARGH^+)nH^+(5−n)BT]”, for which the EC50 is 3.16 µM with HSV-2, 1.35 µM in the data set with HSV-1 and 25.4 µM in data set [2]. Moreover, in data set [1], the “MDD ± St. Dev. (Mean day of death)” value is 8.8 ± 0.45. For the same substance, the Mortality in data set [1] is 5/5 (100). Moreover, the IC50 (commonly the concentration that inhibits the measured activity by half) in the data set with human PBM cells (Table 2, >100 μM = Nontoxic, read-out: IC50 Toxicity PBM Cells) is 328 µM; in the data set on Vero cells, over 100 µM.
(NH4)5[BW12O40] [(NH4)5BT]: the EC50 in the data set with HSV-2 is over 10 µM; in the data set on HSV-1 it was over 10 µM; in data set [2], 68.1 µM; in the data set with HIV-1 (strain LAV-1) (Table 2, several values per cell, some in brackets, read-out: EC-50 HIV-1 (LAV-1)), 6.69 µM and 11.6 µM. In addition, in data set [1], the “MDD ± St. Dev. (Mean day of death)” value came to 4.6 ± 0.89. Also, in data set [1], the Mortality is on record as 5/5 (100). The IC50 with Vero cells was over 100 µM.
As to (NH4)14[NaP5W30O110] [Formula 17], the EC50 in the data set on HIV-1 (strain LAV-1) (setting [3]) turned out to be 0.32 µM. The IC50 with human PBM cells (setting [4]) amounted to 7.7 µM.
For (n-Bu4N)2Mo6O19 [Formula 16] the same measures were over 100 µM and over 100 µM.
In the case of (n-Bu4N)2W6O19 [Formula 15], the IC50 with human PBM cells (setting [4]) is over 100 µM.
In the case of H6ZnW12O40 [Formula 5], the EC50 with HIV-1 (strain LAV-1) (setting [3]) was 0.9 µM. For the same substance, the IC50 in the data set on human PBM cells (setting [4]) is 12 µM.
For K4W4O10(O2)6 [Formula 21], in that order: over 50 µM and over 100 µM.
For K8SiW11O39 [Formula 9], in that order: 0.15 µM and over 100 µM.
For K10Co4(H2O)2(PW9O34)2 [Formula 12] the same measures were 0.8 µM and 44 µM.
As to K10Cu4(H2O)2(PW9O34)2 [Formula 11], the EC50 in the data set with HIV-1 (strain LAV-1) (setting [3]) came out at 4.4 µM. Also, the IC50 in the data set on human PBM cells (setting [4]) is over 100 µM.
For Na6H2W12O40 [Formula 6], in that order: 0.34 µM and over 100 µM.
As for Na7PW11O39 [Formula 8], the EC50 in the data set with HIV-1 (strain LAV-1) (setting [3]) amounted to 10.8 µM. Moreover, the IC50 in the data set with human PBM cells (setting [4]) was over 100 µM.
For Na9HSiW9O34 [Formula 10], in that order: 2.4 µM and over 100 µM.
For [(DMA)2H]3PMo12O40 [Formula 7], in that order: over 100 µM and over 100 µM.
For α-(n-Bu4N)4Mo8O26 [Formula 20], in that order: 55.3 µM and over 100 µM.
